Reference: patent US10555919B2, “Melatonin in autoimmune disease” (The Brigham and Women's Hopsital, Inc., priority 2014, dated 2020)
“Also recorded” adds a separate entry of the source.

Legend:
[1] = test system: experimental autoimmune encephalitis (EAE) model of MS; assay: EAE in mice immunized with MOG35-55, treated daily with melatonin or vehicle; format: in vivo, C57BL/6 wild-type mice; details: melatonin 5 mg/kg intraperitoneally daily
[2] = test system: Tr1 cells; assay: In vitro mouse Tr1 cell differentiation; format: cell-based
Experimental: (§1) Naive CD4+ T cells (CD4+CD44loCD62LhiCD25−) were from the spleen and lymph node of C57BL/6 wild-type, MTNR1A−, NFIL3−, REV-ERBα, C/EBPα-deficient or RORα-deficient mice using magnetic beads (CD4+ T cell isolation kit, Miltenyi Biotec). All experiments were started between 7 and 9 am. Cells were activated with plate-bound anti-CD3 (2 μg/ml; 14-0031-86; eBioscience) and anti-CD28 (2 μg/ml; 16-0281-86; eBioscience). Mouse IL-27 (30 ng/ml; 34-8271; Biolegend) was added for the generation of Tr1 cells. IL-6 (30 ng/ml; 406-ML-025; R&D Systems), TGF-β1 (15 ng/ml; 130-095-067; Miltenyi Biotec), anti-IL-4 (2.5 μg/ml; C17.8; Biolegend) and anti-IFN-γ (5 μg/ml; XMG1.2; Biolegend) were added for the generation of Th17 cells. Recombinant mouse IL-23 (30 ng/ml; 1887-ML-010; R&D Systems) was added at day 2. For some experiments IL-6 and […] (10 ng/ml; 401-ML-025; R&D Systems) or TGF-β1 and IL-21 (100 ng/ml; 594-ML-010; R&D Systems) were used in instead for Th17 cell differentiation. IL-12 (30 ng/ml; 419-ML-010; R&D Systems) and anti-IL-4 (2.5 μg/ml; C17.8; Biolegend) were used for the generation of Th1 cells. IL-4 (30 ng/ml; 404-ML-010; R&D Systems) and anti-IFN-γ (5 μg/ml; XMG1.2; Biolegend) was added for the generation of Th2 cells. TGF-β1 (15 ng/ml; 130-095-067; Miltenyi Biotec) was used for the generation of Foxp3+ Tregs. Melatonin (Gador, Argentina), Agomelatin, and CGP-52608 (Sigma-Aldrich) were added at the start of the cultures and at day 2, at a final concentration of 2-20 ng/ml.

[3] = test system: CD4+ T cells; assay: Flow cytometry of T cell subsets from spleen, lymph nodes and CNS of EAE mice; format: in vivo, C57BL/6 wild-type mice; details: melatonin 5 mg/kg daily
Experimental: For intracellular cytokine staining, cells were stimulated for 4 h at 37° C. with phorbol 12-myristate 13-acetate (50 ng/ml; Sigma), ionomycin (1 μg/ml; Sigma) and monensin (GolgiStop; 1 μg/ml; BD Biosciences). After being stained for surface markers, cells were fixed and made permeable according to the manufacturer's instructions (BD Biosciences). All antibodies against cytokines were from Biolegend. All experiments were started at the same time (8-9 am). Data were collected with a LSR II or FACSAria (BD Biosciences), then were analyzed with FlowJo software (Treestar). CNS infiltrates were isolated as described (Mascanfroni et al., 2013). Mice were perfused with ice-cold PBS. The brain and spinal cord were removed and incubated in PBS containing collagenase type III (2 mg/ml; Worthington) and DNase (20 units/ml; Sigma-Aldrich). Tissues were then homogenized and loaded on a 30%-37%-70% Percoll gradient for enrichment of CNS infiltrates. Based on our epidemiological findings, we studied the effects of melatonin on CNS inflammation using the experimental autoimmune […] (EAE) model of MS. Naïve C57BL/6 wild-type mice were immunized with MOG35-55 and treated daily with melatonin (5 mg/kg, intraperitoneally) or vehicle. Melatonin administration ameliorated EAE clinical symptoms (FIG. 2a, Table 2 and FIG. 7a).

[4] = test system: FoxP3+ iTregs, Th1 or Th2 cells; assay: In vitro mouse differentiation of FoxP3+ iTregs, Th1 or Th2 cells; format: cell-based; details: melatonin 2 ng/ml, 3 days
Experimental: as §1, with “Miltenyi Biotec), anti-IL-4 (2.5 μg/ml;” left out, “R&D Systems) and anti-IL-4 (2.5 μg/ml;” left out, “Tregs.” for “Tregs. Melatonin (Gador, Argentina), Agomelatin, and CGP-52608 (Sigma-Aldrich) were added at the start of the cultures and at day 2, at a final concentration of 2-20 ng/ml.”

[5] = test system: murine Th17 cell differentiation; assay: In vitro mouse Th17 cell differentiation; format: cell-based; details: melatonin 2 ng/ml
Experimental: For intracellular cytokine staining, cells were stimulated for 4 h at 37° C. with phorbol 12-myristate 13-acetate (50 ng/ml; Sigma), ionomycin (1 μg/ml; Sigma) and monensin (GolgiStop; 1 μg/ml; BD Biosciences). After being stained for surface markers, cells were fixed and made permeable according to the manufacturer's instructions (BD Biosciences). All antibodies against cytokines were from Biolegend. All experiments were started at the same time (8-9 am). Data were collected with a LSR II or FACSAria (BD Biosciences), then were analyzed with FlowJo software (Treestar).
as §1
Secreted cytokines were measured in tissue culture supernatants after 72-96 hs by enzyme-linked immunosorbent assay as previously described (Farez et al., 2009).

[6] = during Th17 cell differentiation, 3 days

## COc1ccc2[nH]cc(CCNC(C)=O)c2c1 [Melatonin, N-Acetyl-5-methoxytryptamine]
[1]
  EAE clinical symptoms: ameliorated
  Mean onset day (mean ± sd): 11.8 ± 3.0 days
  Mortality: 0/24
[1]; **P < 0.05
  Mean maximum score (mean ± sd): 2.06 ± 0.8**
[1]; *P = 0.05
  Incidence (%): 65%
  Incidence (animals): 17/24
[2]; Tr1 polarizing conditions, melatonin 2 ng/ml
  expression of IL-10 and the Tr1-associated molecules il21, ahr and cmaf: boosted
[2]; co-culture with CFSE-labeled CD4+ T cells, 48 hs
  suppressive activity of Tr1 cells in vitro: boosted
[3]
  IL-10 secreting CD4+ T cells: increase
  number and frequency of Th17 cells in spleen, lymph nodes and CNS: decreased number and frequency
  number or frequency of other T cell subsets, B cells, γδ T cells or innate lymphoid cells (ILCs): no significant changes
[4]
  differentiation of FoxP3+ iTregs, Th1 or Th2 cells: no effects
[5]; MTNR1A KO
  differentiation of MTNR1A-deficient (MTNR1A KO) Th17 cells: failed to suppress; also recorded: boosted
[5]; Th17 polarizing conditions
  expression of both ROR-α and ROR-γt: reduced
[5]; Th17 polarizing conditions, 72 hs
  expression of IL-10: increased
[5]; [6]
  expression of the ROR-γt repressor NFIL3: increase
  nr1d1 expression: suppressed
[5]; wild type, agomelatine 20 ng/ml, ramelteon 10 ng/ml, CGP 52608 20 ng/ml
  differentiation of Th17 cells (rorc, IL-17, IL-23 receptor): interfered
